# Test results as given in patent US11214803B2, “Modulators of YAP1 expression” (Ionis Pharmaceuticals, Inc., priority 2019, dated 2022).
# Strand notation (5' to 3'): a small letter for the sugar, then the base; units joined by * are phosphorothioate-linked, units joined directly phosphodiester-linked; [ ] holds rarer units or linkages, { } end groups; capitals alone tell only the bases. k = constrained ethyl (cEt); [5mC] = 5-methylcytosine; d = 2'-deoxy (DNA)
# Test system: Yap1 mRNA
# Experiment: Antisense inhibition of human Yap1 in A-431 cells by cEt gapmers, single dose (Example 2, RTS4814)
# Assay type: cell-based
# Settings: A-431 cells, 5,000 cells per well, free uptake, 2,000 nM modified oligonucleotide, approx. 48 hours, RTS4814, normalized to RIBOGREEN; Table 4; asterisk (*) = targets amplicon region of primer probe set
# Outline: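 A-431 cells (5,000/well) received 2,000 nM oligonucleotide by free uptake for about 48 h. Yap1 mRNA was then quantified by RT-qPCR with primer probe set RTS4814, normalized to RIBOGREEN total RNA, and reported as % of untreated control; asterisked values mark oligos inside the amplicon.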
row,Substance,YAP1 (% UTC)
1,716532 (antisense k[5mC]*kA*kA*dG*dA*dA*dG*d[5mC]*dA*dG*dT*dT*dA*kA*kG*k[5mC]) [Compound 716532],70 % UTC
2,716412 (kG*kT*kA*dG*dT*d[5mC]*dT*dG*dG*dG*dA*dA*dA*k[5mC]*kG*kG; antisense) [Compound 716412],41 % UTC
3,716550 (kG*k[5mC]*kA*d[5mC]*dT*dG*dA*dA*dT*dA*dT*dT*dG*k[5mC]*k[5mC]*kA; antisense) [Compound 716550],77 % UTC
4,716529 (antisense k[5mC]*kA*kA*dA*d[5mC]*dT*d[5mC]*dA*dA*dA*dA*dA*dG*kG*kG*kA) [Compound 716529],61 % UTC

# Same assay, conditions: Table 5; A-431 cells, 5,000 cells per well, free uptake, 2,000 nM modified oligonucleotide, approx. 48 hours; RTS4814; normalized to RIBOGREEN; Yap1 mRNA relative to untreated control cells
row,Substance,YAP1 (% UTC)
1,716548 (kG*kA*kG*dT*dT*dT*d[5mC]*dA*dA*d[5mC]*dA*d[5mC]*dT*kG*kA*kT; antisense) [Compound 716548],31 % UTC
2,716407 (k[5mC]*kT*kT*dA*dG*dT*d[5mC]*d[5mC]*dA*d[5mC]*dT*dG*dT*k[5mC]*kT*kG; antisense) [Compound 716407],35 % UTC
3,716503 (kT*kT*kA*dT*dT*dA*dT*dG*dA*dG*dT*dG*dA*kT*k[5mC]*kA; antisense) [Compound 716503],33 % UTC

# Same assay, conditions: Table 6; A-431 cells, 5,000 cells per well, free uptake, 2,000 nM modified oligonucleotide, approx. 48 hours; RTS4814; normalized to RIBOGREEN; Yap1 mRNA relative to untreated control cells
row,Substance,YAP1 (% UTC)
1,716540 (antisense kG*kA*kA*dA*dA*dG*dT*dT*dA*dT*dT*dA*d[5mC]*kA*kA*k[5mC]) [Compound 716540],120 % UTC
2,716393 (kT*kT*kG*d[5mC]*dT*dG*d[5mC]*dT*dG*dG*dT*dT*dG*kG*kA*kG; antisense) [Compound 716393],46 % UTC

# Same assay, conditions: Table 19; A-431 cells, 5,000 cells per well, free uptake, 2,000 nM modified oligonucleotide, approx. 48 hours; RTS4814; normalized to RIBOGREEN; Yap1 mRNA as percent of untreated control
row,Substance,YAP1 (% UTC)
1,1075269 (antisense kT*kT*kA*dT*dT*dA*dA*d[5mC]*d[5mC]*dT*dG*dG*dA*kG*kA*kG) [Compound 1075269],13 % UTC
2,1074565 (antisense kA*k[5mC]*kT*dG*dA*dA*dT*dT*d[5mC]*d[5mC]*dA*dA*dT*k[5mC]*kG*kA) [Compound 1074565],5 % UTC
3,1074149 (antisense kG*k[5mC]*k[5mC]*dG*dA*dG*dG*dT*dG*dG*dA*dG*dA*kA*kG*k[5mC]) [Compound 1074149],58 % UTC
4,1074917 (antisense k[5mC]*kA*kA*dG*dT*dT*dA*d[5mC]*dA*dT*d[5mC]*d[5mC]*d[5mC]*kG*kA*kG) [Compound 1074917],80 % UTC
5,1075109 (antisense kA*k[5mC]*kT*dA*dA*dA*dA*dA*d[5mC]*dA*dT*dT*dG*kT*kG*kG) [Compound 1075109],71 % UTC
6,1074725 (antisense kG*kT*kA*dT*dA*dA*d[5mC]*dT*dG*dG*dG*d[5mC]*dA*kA*kA*kT) [Compound 1074725],17 % UTC

# Same assay, conditions: Table 20; Yap1 mRNA, percent of untreated control; 3-10-3 cEt gapmers targeting SEQ ID NO.: 1 and 2
row,Substance,YAP1 (% UTC)
1,1074374 (antisense kT*kG*k[5mC]*dT*dT*dT*dG*dG*dT*dT*dG*dA*dT*kA*kG*kT) [Compound 1074374],13 % UTC
2,1075942 (kT*kG*kA*d[5mC]*dT*dA*dT*dA*d[5mC]*dA*dT*dG*dG*kT*kG*kA; antisense) [Compound 1075942],46 % UTC
3,1075142 (antisense kG*kA*kT*dA*dT*dA*d[5mC]*dG*dA*dG*dA*dA*dG*kT*kT*kG) [Compound 1075142],16 % UTC

# Same assay, conditions: Table 21; Yap1 mRNA, percent of untreated control; 3-10-3 cEt gapmers targeting SEQ ID NO.: 1 and 2
row,Substance,YAP1 (% UTC)
1,1076519 (antisense kA*k[5mC]*kA*d[5mC]*dA*dA*d[5mC]*dA*d[5mC]*dG*dA*d[5mC]*dA*kG*k[5mC]*kA) [Compound 1076519],31 % UTC
2,1075559 (kG*kA*kT*dA*dT*dT*dA*dA*dG*dG*dT*dG*dG*k[5mC]*kT*kT; antisense) [Compound 1075559],24 % UTC

# Same assay, conditions: Table 22; Yap1 mRNA as percent of untreated control; 3-10-3 cEt gapmers; single dose
row,Substance,YAP1 (% UTC)
1,1075048 (antisense kG*kT*kA*dA*dA*dA*dT*dT*dA*dG*dA*d[5mC]*dT*k[5mC]*k[5mC]*k[5mC]) [Compound 1075048],4 % UTC
2,1075016 (antisense kT*k[5mC]*kA*dG*dA*dA*dT*dA*dA*dG*dT*dA*dT*kG*kA*kT) [Compound 1075016],100 % UTC
3,1075816 (kT*kA*kG*dT*dA*dT*dA*dA*dA*dG*d[5mC]*dA*dG*kG*kG*k[5mC]; antisense) [Compound 1075816],7 % UTC

# Same assay, conditions: Table 23; Yap1 mRNA as percent of untreated control; 3-10-3 cEt gapmers; single dose
row,Substance,YAP1 (% UTC)
1,1076489 (antisense k[5mC]*kA*kA*dA*dA*dT*dA*dG*dG*dT*dG*dA*dG*kT*k[5mC]*kA) [Compound 1076489],2 % UTC
2,1076361 (kT*kG*kG*dG*dA*dA*dA*dA*dG*d[5mC]*dT*dA*d[5mC]*k[5mC]*kA*k[5mC]; antisense) [Compound 1076361],87 % UTC
3,1076105 (kT*kA*k[5mC]*dG*dA*dA*dA*dT*dA*dG*dT*dA*dA*k[5mC]*kT*kG; antisense) [Compound 1076105],13 % UTC
4,1075241 (antisense kG*kA*kT*dA*dA*dT*dT*dA*d[5mC]*dT*dA*dA*d[5mC]*kT*kG*kA) [Compound 1075241],31 % UTC
5,1075817 (k[5mC]*k[5mC]*kT*dA*dA*dA*dG*dA*dA*dG*dT*d[5mC]*dT*kT*kG*kG; antisense) [Compound 1075817],100 % UTC

# Same assay, conditions: Table 24; Yap1 mRNA as percent of untreated control; 3-10-3 cEt gapmers targeting SEQ ID NO.: 1, and 2
row,Substance,YAP1 (% UTC)
1,1075562 (kG*kT*kA*dT*dT*dT*dA*dT*dG*dG*d[5mC]*dA*dA*k[5mC]*kA*kT; antisense) [Compound 1075562],15 % UTC
2,1075338 (k[5mC]*k[5mC]*k[5mC]*dA*dA*dA*dA*dA*d[5mC]*dT*dA*dG*d[5mC]*kT*kT*kA; antisense) [Compound 1075338],56 % UTC
3,1075466 (antisense kT*k[5mC]*k[5mC]*dA*dA*dA*dA*dA*d[5mC]*d[5mC]*dA*dT*d[5mC]*kA*kG*kT) [Compound 1075466],28 % UTC
4,1076234 (k[5mC]*k[5mC]*kT*dT*dA*dA*dT*dA*dT*dA*dT*d[5mC]*d[5mC]*kA*k[5mC]*kA; antisense) [Compound 1076234],24 % UTC
5,1074442 (kG*kA*k[5mC]*d[5mC]*dA*dG*dT*dA*dA*dA*dT*d[5mC]*dA*kT*kG*kT; antisense) [Compound 1074442],21 % UTC
6,1074506 (kT*kA*kA*dT*d[5mC]*dG*dA*dG*dA*dT*dT*dT*dA*kA*kA*kT; antisense) [Compound 1074506],107 % UTC

# Same assay, conditions: Table 25; Yap1 mRNA as percent of untreated control; 3-10-3 cEt gapmers targeting SEQ ID NO.: 1, and 2
row,Substance,YAP1 (% UTC)
1,1075147 (antisense kT*kA*kT*dA*dA*dA*d[5mC]*d[5mC]*dT*dT*dA*d[5mC]*dA*kG*kT*kA) [Compound 1075147],57 % UTC
2,1075051 (antisense kA*kA*kT*dA*dA*dA*d[5mC]*dA*dA*d[5mC]*d[5mC]*d[5mC]*dA*kA*k[5mC]*kG) [Compound 1075051],56 % UTC
3,1075979 (k[5mC]*kA*kT*dA*dA*dT*d[5mC]*d[5mC]*dA*d[5mC]*dT*dA*dT*kG*k[5mC]*kA; antisense) [Compound 1075979],18 % UTC
4,1076011 (kA*kT*kA*dT*dA*dA*dA*d[5mC]*dA*dA*dT*dA*dG*k[5mC]*kG*kA; antisense) [Compound 1076011],61 % UTC

# Same assay, conditions: Table 32; Yap1 mRNA, percent of untreated control; 3-10-3 cEt gapmers targeting SEQ ID NO.: 1, and 2
row,Substance,YAP1 (% UTC)
1,1074546 (k[5mC]*kA*k[5mC]*dT*d[5mC]*d[5mC]*d[5mC]*d[5mC]*dT*dA*dG*dG*d[5mC]*kA*k[5mC]*kT; antisense) [compound 1074546],33 % UTC
2,1076498 (kT*kT*kA*d[5mC]*dA*dA*dT*dA*d[5mC]*d[5mC]*dT*dT*dA*kT*kG*kA; antisense) [compound 1076498],70 % UTC

# Same assay, conditions: Table 33; Yap1 mRNA, percent of untreated control; 3-10-3 cEt gapmers targeting SEQ ID NO.: 1, and 2
row,Substance,YAP1 (% UTC)
1,1075443 (antisense kG*kA*kT*dT*dA*dA*d[5mC]*dA*dG*dA*dG*d[5mC]*dT*kA*kG*kA) [compound 1075443],29 % UTC

# Same assay, conditions: Yap1 mRNA as percent of untreated control; A-431 cells; 3-10-3 cEt gapmers targeting SEQ ID NO.: 1, and 2; Table 30
row,Substance,YAP1 (% UTC)
1,1076432 (k[5mC]*kA*kT*dT*dA*dG*dT*dA*dT*dT*d[5mC]*dA*d[5mC]*kT*kG*kT; antisense) [compound 1076432],18 % UTC
2,1075152 (kT*kA*kT*dA*dA*dT*dG*dG*dG*dA*dG*dG*dA*kT*kT*kA; antisense) [compound 1075152],99 % UTC
3,1075184 (k[5mC]*kA*kA*dG*dA*dA*d[5mC]*dA*d[5mC]*dT*dG*dG*dT*kA*kT*kT; antisense) [compound 1075184],67 % UTC
4,1076016 (kT*kA*kA*dT*dA*dG*dG*dA*dT*dG*dG*dA*dT*kT*k[5mC]*kT; antisense) [compound 1076016],8 % UTC
5,1074288 (antisense kG*kA*k[5mC]*dT*dG*dA*dT*dT*d[5mC]*dT*d[5mC]*dT*dG*kG*kT*kT) [compound 1074288],48 % UTC

# Same assay, conditions: Yap1 mRNA as percent of untreated control; A-431 cells; 3-10-3 cEt gapmers targeting SEQ ID NO.: 1, and 2; Table 31
row,Substance,YAP1 (% UTC)
1,1075889 (antisense kA*kT*kT*dA*dA*dA*dA*dG*dT*dA*dG*dG*d[5mC]*k[5mC]*k[5mC]*kT) [compound 1075889],71 % UTC
